Assay results published in patent publication US11246929B2, “Combination of a protein kinase inhibitor and an additional chemotherapeutic agent” (Merck Patent GmbH, priority 2016, dated 2022).

Experiments:
[1] = system: FaDu; assay: AlamarBlue viability assay; format: cell-based, human
Method: (§1) Compound 1 in combination with etoposide or cisplatin was tested in the following cancer cell lines for inhibition of tumor cells: human lung carcinoma (NCI-H460), human glioblastoma (MO59K and MO59J), and human squamous cell carcinoma pharynx (FaDu). Details of the assay protocol and material utilized are set forth below.
(§2) Cells were plated in a volume of 180 μl/well in 96-well plates: (FaDu: 1000 cells/well (168 h); NCI-H460 3000 cells/well (72 h) and 1000 cells/well (168 h); MO59J: 5000 cells/well (72 h) and 2000 cells/well (168 h); MO59K: 2000c/well (72 h) and 1000 cells/well (168 h)) and incubated at 37° C. and relevant C02 for 24 h hours. 20 μl per well of medium including serial dilutions of Compound 1 and/or Etoposide or Cisplatin were added to the culture plates and the incubation was continued further for 3 days (72 h) or 7 days (168 h) at 37° C. and relevant CO2. Compound 1 was pre-incubated for 30 min before Etoposide or Cisplatin were added.
(§3) Cells were plated in 200 μl volume per well (FaDu: 1000 cells/well (168 h); NCI-H460 3000 cells/well (72 h) and 1000 cells/well (168 h); MO59J: 5000 cells/well (72 h) and 2000 cells/well (168 h); MO59K: 2000c/well (72 h) and 1000 cells/well (168 h)). After 24 h incubation at 37° C. Compound 1, Etoposide or Cisplatin were dispensed by using the Digital HP Dispenser D300 (and the included dispensing software). Plates were further incubated for 3 days (72 h) or 7 days (168 h) at 37° C. and relevant CO2.
(§4) At the end of the compound incubation period 20 μl AlamarBlue reagent was added per well and the 96-well plates were incubated further up to seven hours. Absorption was determined at 540 nm by using Tecan Reader Connect and Magelan 7.
(§5) 0% effect=cells treated with DMSO; −100% effect=no cells

[2] = system: MO59J (DNA-PK deficient); assay: AlamarBlue viability assay; format: cell-based, human; conditions: compound incubation for 168 h
Method: as §1, §2, §3, §4, §5

[3] = system: NCI-H460; assay: AlamarBlue viability assay; format: cell-based, human
Method: as §1, §2, §3, §4, §5

[4] = system: mesothelioma (pleura) cell lines; assay: cells; conditions: read-out: Median etoposide concentration needed to reach GI50

GI50 [4] | Compound | inhibition of viability, combination with etoposide [1] | combination effect with Etoposide on viability [2] | combination effect with cisplatin on viability [3] | inhibition of viability, combination with etoposide [3]
– | COc1ccc([C@@H](O)c2cc(-c3ncnc4cc(N5CCOCC5)ccc34)c(F)cc2Cl)nn1 [Compound 1, (S)-[2-chloro-4-fluoro-5-(7-morpholin-4-yl-quinazolin-4-yl)-phenyl]-(6-methoxy-pyridazin-3-yl)-methanol] | enhanced inhibition of viability | no such combination effect | No significant combination effect | enhanced inhibition of viability
1 µM | COc1cc([C@@H]2c3cc4c(cc3[C@@H](O[C@@H]3O[C@@H]5CO[C@@H](C)O[C@H]5[C@H](O)[C@H]3O)[C@H]3COC(=O)[C@H]23)OCO4)cc(OC)c1O [Etoposide] | – | – | – | –
